# Experimental data as given in patent publication US9572882B2, “Compositions and methods for improving cardiovascular function” (RiboCor, INC., priority 2000, dated 2017).
# “Also recorded” adds a separate entry of the source. Read-outs that look alike come from different tables or passages of the source.
# Tests used:
# [1] = test system: patients with heart failure; patients with angina; details: cited from earlier work
# [2] = test system: subject with borderline blood pressure; assay: Blood pressure in one subject with borderline hypertension given ribose; type: in vivo, human
# From the text: As shown in Example 1, treatment with ribose improves diastolic cardiac function. Since hypertension is accompanied by left ventricular dysfunction, it is expected that the administration of ribose to patients experiencing hypertension with result in a benefit. One subject has been tested. Their blood pressure has been tested at borderline values of 130/90. Following daily administration of ribose at 5-10 grams per day, their blood pressure was lowered to as low as 108/78.
# [3] = test system: patients with cardiovascular disease; athletes; details: cited from earlier work
# [4] = test system: patients with chronic coronary artery disease and chronic heart failure; assay: Quality of life (SF 36 form) and physical function in the crossover study; type: in vivo, human; details: oral, 5 g three times a day for three weeks
# From the text: A double-blinded, randomized, crossover clinical study was initiated to determine whether patients with cardiovascular disease could find a ribose benefit at lower, safer doses. Patients with known chronic coronary artery disease with stable angina pectoris and chronic heart failure, class II and III (New York Classification, NYHA) were selected for the study. […] All patients were being treated with nitrates, molsidim and beta blockers. Three patients were also on diltiazem and an additional three on trapidil. Medications were not altered during the study. Exclusion criteria included patients <18 years of age, those with severe concurrent disease (renal failure, diabetes mellitus, neoplasia), evidence of hyperthyroidism and inability to follow the protocol. The study consisted of two treatment periods, three weeks in duration. Initially, either ribose or placebo (dextrose) was administered three times a day with meals. […] Measured objectives parameters of systolic and diastolic function were assessed with transthoracic echocardiography. Subjectively, quality of life using the SF36 form, and physical function (exercise tolerance) were assessed. All of the above parameters were assessed at pre- and post-treatment in both arms of the study. Quality of life was assessed in each patient using the SF 36 form. […]
# [5] = test system: patients with chronic coronary artery disease with stable angina pectoris and chronic heart failure, class II and III; assay: Transthoracic echocardiography in double-blinded, randomized, crossover clinical study of ribose vs placebo; type: in vivo, human; details: oral
# From the text: A double-blinded, randomized, crossover clinical study was initiated to determine whether patients with cardiovascular disease could find a ribose benefit at lower, safer doses. Patients with known chronic coronary artery disease with stable angina pectoris and chronic heart failure, class II and III (New York Classification, NYHA) were selected for the study. […] All patients were being treated with nitrates, molsidim and beta blockers. Three patients were also on diltiazem and an additional three on trapidil. Medications were not altered during the study. Exclusion criteria included patients <18 years of age, those with severe concurrent disease (renal failure, diabetes mellitus, neoplasia), evidence of hyperthyroidism and inability to follow the protocol.
# The study consisted of two treatment periods, three weeks in duration. Initially, either ribose or placebo (dextrose) was administered three times a day with meals. Five grams of either ribose of or placebo was dissolved in approximately eight ounces of fluid shortly before administration. Following the initial treatment period, the patients were given no ribose or placebo treatment for one week as a washout period. The patients were then given the alternate treatment for three weeks for the crossover phase of the study.
# Measured objectives parameters of systolic and diastolic function were assessed with transthoracic echocardiography. Subjectively, quality of life using the SF36 form, and physical function (exercise tolerance) were assessed. All of the above parameters were assessed at pre- and post-treatment in both arms of the study.
# Each echocardiographic assessment was performed by the same clinical individual and accumulated data were analyzed by two cardiologists in a blinded manner, with a consensus establishing a final result. All studies were conducted with commercially available equipment (System V, GE, Norway). To allow off-line quantitative analysis of the echocardiographic data, studies were recorded on videotape with selected cine-loops and velocity spectra digitally transferred to a Macintosh G4 computer (Apple Computers, CA) for subsequent analysis. Software provided by the manufacturer (Echopac®, GE, Norway) was used for data evaluation.
# Each echocardiographic assessment was performed transthoracically and a 1.7/3.4 MHZ harmonic transducer was used with the patient examined in the left lateral decubitus position. A one-lead electrocardiogram was recorded continuously during echocardiographic assessment. The M-Mode left atrial dimension was measured at end-systole in the parasternal long-axis view and left ventricular ejection fraction was determined according to the recommendations of the North American Society of Echocardiography. In addition, left atrial volume was determined using the Simpson's rule in the 4 chamber view. Transmitral Doppler inflow velocities were recorded from the apical four-chamber view with the sample volume positioned between the tips of the mitral leaflets during quiet respiration.
# The parameters derived from the transmitral velocity spectra were: peak velocity of the early (E) and atrial filling (A) waves, the corresponding velocity time integrals (VTIE and VTIA and the percentage of atrial contribution to total left ventricular filling. The deceleration slope of the E wave was also measured. The percentage of atrial contribution to total left ventricular filling was determined by dividing the VTIA by the total diastolic velocity time integral. The results of five consecutive heart cycles were averaged in each patient to obtain a justified value.
# Analysis of variance for repeated measures (ANOVA) was used for the analysis of serial changes of continuous parameters within and between the randomized, assigned treatment arms, i.e. ribose vs placebo. Further comparison were subject to Bonferroni correction. In all cases, a p value s 0.05 was considered statistically significant.
# [6] = test system: patients with chronic coronary artery disease and chronic heart failure; assay: Semi-upright bicycle exercise test in the crossover study; type: in vivo, human; details: beginning vs end of the treatment period
# From the text: A double-blinded, randomized, crossover clinical study was initiated to determine whether patients with cardiovascular disease could find a ribose benefit at lower, safer doses. Patients with known chronic coronary artery disease with stable angina pectoris and chronic heart failure, class II and III (New York Classification, NYHA) were selected for the study. […] All patients were being treated with nitrates, molsidim and beta blockers. Three patients were also on diltiazem and an additional three on trapidil. Medications were not altered during the study. Exclusion criteria included patients <18 years of age, those with severe concurrent disease (renal failure, diabetes mellitus, neoplasia), evidence of hyperthyroidism and inability to follow the protocol. The study consisted of two treatment periods, three weeks in duration. Initially, either ribose or placebo (dextrose) was administered three times a day with meals. Five grams of either ribose of or placebo was dissolved in approximately eight ounces of fluid shortly before administration. Following the initial treatment period, the patients were given no ribose or placebo treatment for one week as a washout period. […] Rate pressure product (RPP) was calculated using systolic blood pressure times heart rate and expressed in RPP units.
# congestive heart failure = details: 4 weeks of supplementation (Azuma et al 1983); cited from earlier work
# plasma homocysteine = details: cited from earlier work
# [7] = 5 g three times a day for three weeks
# [8] = 5 g three times a day for three weeks, p ≦ .005 vs dextrose placebo
smiles,measurement,setting,value
"N=C(N)NCCC[C@H](N)C(=O)O [arginine, L-arginine]",benefits for patients with heart failure,[1]; 5.6 to 12.6 g/day supplemental (Rector et al 1996),"increased blood flow, increased distances in a 6-minute walk test, and improved arterial compliance"
same,exercise capacity in patients with angina,"[1]; oral, 6 g/day for 3 days (Ceremuzynski et al 1997)",improved
"O=C[C@H](O)[C@H](O)[C@H](O)CO [Ribose, D-Ribose]",pressure-lowering effects in further studies,"[2]; further studies, expected",expected to confirm the pressure-lowering effects
same,blood pressure after ribose,"[2]; one subject, borderline values of 130/90 before, 5-10 grams per day daily",108/78
same,benefit to patients with cardiovascular disease,[3]; 60 grams daily in four 15 gram doses for three days (Pliml 1992),benefited
same,side effects,[3]; 60 grams daily in four 15 gram doses,"hypoglycemia with concomitant dizziness, nausea and sweating; also recorded: abdominal distress and diarrhea"
same,treadmill performance of angina patients,[3]; orally administered high doses (Pliml et al 1992),increased
same,power output of athletes on exercise bikes,"[3]; supplemental ribose (U.S. Pat. No. 6,159,942)",greater
same,overall score of the quality of life index,[4]; SF 36 form,significant improvement; also recorded: enhanced
same,physical function,[4],significant improvement
same,atrial contribution to left ventricular filling as compared to placebo,[5]; [7],higher
same,deceleration time of the E wave as compared to placebo,[5]; [7],significant shorter
same,ejection fraction (EF),[5]; [7],51.0 ± 7.3%
same,left atria volume as compared to placebo,[5]; [7],significantly smaller
same,atrial contribution (Ac),"[5]; 5 g three times a day for three weeks, p < .01 vs dextrose placebo",45.3 ± 9.2 &
same,deceleration time of the E wave (Edc),[5]; [8],193.5 ± 45.9 ms
same,left ventricular systolic volume (LVVs),[5]; [8],64.4 ± 24.8 mL
same,stroke volume index (SVI),[5]; [8],2.63 ± .57 ml/body mass index
same,diastolic cardiac function,"[5]; relatively short term, severe coronary artery disease and congestive heart failure",significantly improved
same,mean maximal attained exercise level,[6],not changed
NCCS(=O)(=O)O [taurine],"dyspnea, palpitation, crackles, edema, and New York Heart Association functional class",congestive heart failure,highly significant improvement
Nc1nc2ncc(CNc3ccc(C(=O)N[C@@H](CCC(=O)O)C(=O)O)cc3)nc2c(=O)[nH]1 [Folic acid],reduction of plasma homocysteine levels,plasma homocysteine; 250 pg/d dose (Brouwer et al. 1999),11%
same,reduction of plasma homocysteine levels,plasma homocysteine; 300 pg/d in healthy individuals over 5 weeks (Mansoor),20%
same,reduction of plasma homocysteine,plasma homocysteine; 300 pg/day plus 120 mg/day of vitamin B6 (Mansoor),32%
same,reduction of plasma homocysteine levels,plasma homocysteine; 500 pg/d dose (Brouwer et al. 1999),22%
